Laboratory results reported in ChEMBL document CHEMBL1955806, “Design, synthesis, single-crystal and preliminary antitumor activity of novel arenesulfonylimidazolidin-2-ones” (2012).

Experiments:
Type in all cases: functional
[1] = test system: HCT-116; assay: Growth inhibition of human HCT116 cells at 10 uM after 48 hrs by sulforhodamine B assay; conditions: HCT-116, 48 h, read-out: GI
[2] = test system: RPMI-8226; assay: Growth inhibition of human RPMI8226 cells at 10 uM after 48 hrs by sulforhodamine B assay; conditions: RPMI-8226, 48 h, read-out: GI
[3] = test system: NCI-H322M; assay: Growth inhibition of human NCI-H322M cells at 10 uM after 48 hrs by sulforhodamine B assay; conditions: read-out: GI
[4] = test system: Hs-578T; assay: Growth inhibition of human Hs578T cells at 10 uM after 48 hrs by sulforhodamine B assay; conditions: read-out: GI
[5] = test system: MDA-MB-231; assay: Growth inhibition of human MDA-MB-231/ATCC cells at 10 uM after 48 hrs by sulforhodamine B assay; conditions: MDA-MB-231, 48 h, read-out: GI
[6] = test system: K562; assay: Growth inhibition of human K562 cells at 10 uM after 48 hrs by sulforhodamine B assay; conditions: K562, 48 h, read-out: GI
[7] = test system: M14; assay: Growth inhibition of human M14 cells at 10 uM after 48 hrs by sulforhodamine B assay; conditions: M14, 48 h, read-out: GI
[8] = test system: T47D; assay: Growth inhibition of human T47D cells at 10 uM after 48 hrs by sulforhodamine B assay; conditions: read-out: GI
[9] = test system: MCF7; assay: Growth inhibition of human MCF7 cells at 10 uM after 48 hrs by sulforhodamine B assay; conditions: MCF7, 48 h, read-out: GI
[10] = test system: UACC-257; assay: Growth inhibition of human UACC257 cells at 10 uM after 48 hrs by sulforhodamine B assay; conditions: UACC-257, 48 h, read-out: GI
[11] = test system: OVCAR-8; assay: Growth inhibition of human OVCAR8 cells at 10 uM after 48 hrs by sulforhodamine B assay; conditions: OVCAR-8, 48 h, read-out: GI
[12] = test system: NCI-H23; assay: Growth inhibition of human NCI-H23 cells at 10 uM after 48 hrs by sulforhodamine B assay; conditions: NCI-H23, 48 h, read-out: GI
[13] = test system: NCI-H460; assay: Growth inhibition of human NCI-H460 cells at 10 uM after 48 hrs by sulforhodamine B assay; conditions: NCI-H460, 48 h, read-out: GI
[14] = test system: SNB-19; assay: Growth inhibition of human SNB19 cells at 10 uM after 48 hrs by sulforhodamine B assay; conditions: SNB-19, 48 h, read-out: GI
[15] = test system: LOX IMVI; assay: Growth inhibition of human LOXIMVI cells at 10 uM after 48 hrs by sulforhodamine B assay; conditions: read-out: GI
[16] = test system: PC-3; assay: Growth inhibition of human PC3 cells at 10 uM after 48 hrs by sulforhodamine B assay; conditions: PC-3, 48 h, read-out: GI

## CO[C@@H]1[C@@H](OC)N(S(=O)(=O)c2ccc(Cl)cc2)C(=O)N1S(=O)(=O)c1ccc(Cl)cc1 (relative stereo)
[1]
  inhibition of growth at 10 µM: 33.1%
[2]
  inhibition of growth at 10 µM: 21.9%
[3]
  inhibition of growth at 10 µM: 14.7%
[4]
  inhibition of growth at 10 µM: -4.94%
[5]
  inhibition of growth at 10 µM: 23.4%
[6]
  inhibition of growth at 10 µM: 23.2%
[7]
  inhibition of growth at 10 µM: 6.23%
[8]
  inhibition of growth at 10 µM: 9.2%
[9]
  inhibition of growth at 10 µM: 16%
[10]
  inhibition of growth at 10 µM: -11.6%
[11]
  inhibition of growth at 10 µM: 9.39%
[12]
  inhibition of growth at 10 µM: 8.09%
[13]
  inhibition of growth at 10 µM: -1.36%
[14]
  inhibition of growth at 10 µM: 2.72%
[15]
  inhibition of growth at 10 µM: 5.58%
[16]
  inhibition of growth at 10 µM: 29.8%
